The values below are quoted from earlier work in patent US20130142872A1, “EMP2: Ethyl-Methyl, di Methyl, tri Methyl Pyruvate Acid Esters: A Tool for Regulating HbA1c and a Riboswitch Activator” (priority 2011, published 2013).

For data set [1] the following is noted: clinically prescribed / clinically relevant doses.
For data set [2] the following is noted: wide variety of preclinical models of critical illnesses.
For data set [3] the following is noted: after coronary ischemia and reperfusion.
The next data set concerns B-islet pancreatic cell. As to conditions: as compared to its glucose control.
For data set [4], the system named is primary astrocyte cultures. The note with it: 10 mM extracellular NAD(+) after MNNG exposure.
Data set [5] has as its system Cultured mouse astrocytes. The note with it: for cell death / translocation of the apoptosis-inducing factor from mitochondria to nuclei: after PARP-1 activation.
The next data set deals with THP-1 monocytic cells. The note with it: PMA-stimulated THP-1 cells.
In data set [6] the test system is Mouse neuron and astrocyte cultures. As to conditions: for NAD(+) depletion: PARP1 activation by MNNG or H(2)O(2); for poly(ADP-ribose) accumulation: during MNNG exposure, immunostaining; for cell death: hydrogen peroxide, NMDA or MNNG exposure.

With `CCOC(=O)C(C)=O` [Ethyl pyruvate, ethyl pyruvate], the “safety in human volunteers” value in data set [1] is “safe”. The “survival and organ dysfunction” value in data set [2] is “improve survival and ameliorate organ dysfunction”. The cardiac function entry in data set [3] was “improve cardiac function”.
Consider `COC(=O)C(C)=O` [Methyl pyruvate], for which the “increase in insulin production” value in the data set on B-islet pancreatic cell was “six-fold”. Further, the “safety in human volunteers” value in data set [1] is “safe”.
Take `NC(=O)c1ccc[n+]([C@@H]2O[C@H](COP(=O)([O-])OP(=O)(O)OC[C@H]3O[C@@H](n4cnc5c(N)ncnc54)[C@H](O)[C@@H]3O)[C@@H](O)[C@H]2O)c1` [NAD(+)]: in data set [4], the cell death entry is “prevented” and the glycolytic capacity result is “completely restored”. In addition, the mitochondrial membrane potential result in data set [5] (NAD(+) restored to near-normal levels after PARP-1 activation) is “enabled the recovery”. For the same compound, in data set [5], the cell death result is reported as “blocked” and the “translocation of the apoptosis-inducing factor from mitochondria to nuclei” value is “blocked”.
In the case of `CCCCC/C=C/C=C1/C(=O)C=CC1C/C=C\CCCC(=O)O` (stereo not drawn) [PGJ2, 15-deoxy-Delta(12, 14)-PGJ2], in the data set with THP-1 monocytic cells, the “IL-1, IL-6 and TNFalpha (pro-inflammatory cytokine) secretion” value is on record as “inhibitory effect”; the IL-1Ra production entry is listed as “increasing”.
Regarding `NC(=O)c1ccccc1` [benzamide], in data set [6], the “NAD(+) depletion” value is reported as “prevented”, the “poly(ADP-ribose) accumulation” value is on record as “decrease” and the cell death entry is recorded as “markedly reduced”.
As to `O=C(OC[C@H]1O[C@@H](OC(=O)c2cc(O)c(O)c(OC(=O)c3cc(O)c(O)c(O)c3)c2)[C@H](OC(=O)c2cc(O)c(O)c(OC(=O)c3cc(O)c(O)c(O)c3)c2)[C@@H](OC(=O)c2cc(O)c(O)c(OC(=O)c3cc(O)c(O)c(O)c3)c2)[C@@H]1OC(=O)c1cc(O)c(O)c(OC(=O)c2cc(O)c(O)c(O)c2)c1)c1cc(O)c(O)c(OC(=O)c2cc(O)c(O)c(O)c2)c1` [gallotannin], in data set [6], the “NAD(+) depletion” value is recorded as “prevented”, the “poly(ADP-ribose) accumulation” value is “increase” and the cell death entry was “equally reduced”.
Turning to cyclosporin A, in data set [5], the cell death result is recorded as “blocked” and the “translocation of the apoptosis-inducing factor from mitochondria to nuclei” value is reported as “blocked”.
On to nobotanin B, for which the cell death result in data set [6] is given as “equally reduced”.
